Assay results published in publication PMC11091072, “Targeting bacterial nickel transport with aspergillomarasmine A suppresses virulence-associated Ni-dependent enzymes” (Nature Communications, 2024).
“And” between values parts separate entries of the source, which are not always exact repeats. Equal values may be shown once. Read-outs that look alike come from different tables or passages of the source.

How the values were obtained:
S. aureus = assay type: cell-based, Staphylococcus aureus; conditions: 200 μM, 24 h
NikA [1] = assay type: binding, Klebsiella pneumoniae; conditions: 100 μM
[2] = system: S. aureus urease activity (whole cell); assay type: cell-based, Staphylococcus aureus; conditions: S. aureus, artificial urine, 24 h
NikA [3] = biological target: NikA (Klebsiella pneumoniae, UniProt A6TFA3); assay type: binding
HEK293 cells = experiment: HEK293 cytotoxicity assay (Cell Titer Glo 2.0)
K. pneumoniae [4] = assay type: cell-based, Klebsiella pneumoniae; conditions: 200 μM, 24 h exposure
[5] = system: K. pneumoniae urease activity (Ni2+ uptake); experiment: Competition of Zn-AMA with Ni-(L-His)2 (urease-dependent pH); assay type: cell-based, Klebsiella pneumoniae; conditions: Zn-AMA 0 μM
K. pneumoniae [6] = assay type: cell-based, Klebsiella pneumoniae; conditions: Chelex-treated nitrogen-limited medium
[7] = pH 7.5, 2:1 complex, cited from earlier work

Chain of NikA (Klebsiella pneumoniae, UniProt A6TFA3) (A6TFA3 entry or part of it): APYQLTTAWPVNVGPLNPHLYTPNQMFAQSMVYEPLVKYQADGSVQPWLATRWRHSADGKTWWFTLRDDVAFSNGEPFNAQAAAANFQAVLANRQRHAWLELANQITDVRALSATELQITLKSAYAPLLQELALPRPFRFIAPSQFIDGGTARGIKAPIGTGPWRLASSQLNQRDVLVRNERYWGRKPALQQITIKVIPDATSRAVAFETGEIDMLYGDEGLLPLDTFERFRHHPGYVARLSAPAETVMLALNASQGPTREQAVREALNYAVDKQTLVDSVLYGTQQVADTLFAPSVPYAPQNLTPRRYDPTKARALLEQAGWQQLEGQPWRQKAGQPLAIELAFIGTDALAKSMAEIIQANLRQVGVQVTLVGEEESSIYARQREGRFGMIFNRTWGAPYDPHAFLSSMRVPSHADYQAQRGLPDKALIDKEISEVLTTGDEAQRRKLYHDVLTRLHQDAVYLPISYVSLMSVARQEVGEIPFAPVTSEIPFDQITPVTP

N[C@@H](CN[C@@H](CN[C@@H](CC(=O)O)C(=O)O)C(=O)O)C(=O)O.[Co+2] [Co-AMA]
bacterial viability (spot dilutions) (S. aureus): not lethal to bacteria | effect on stability of recombinant NikA (NikA [1]): increase NikA’s stability | effect on urease activity [2]: inhibited urease activity similarly | n (stoichiometry, ITC) (NikA [3]; 37 °C, pH 7.5): 1.06 | ∆G (NikA [3]; 37 °C, pH 7.5): -28.9 kJ/mol | ∆H (NikA [3]; 37 °C, pH 7.5): -43.9 kJ/mol | −T∆S (NikA [3]; 37 °C, pH 7.5): 15.1 kJ/mol | Kd (NikA [3]; read-out: KD for NikA (ITC), 25 mM Tris-HCl, 150 mM NaCl, 0.1% Triton X-100, pH 7.5, 37 °C): 13 ± 0.4 µM | HEK 293T cytotoxicity assay raw signal (HEK293 cells; Co-AMA 0.5 μg/mL): 622984 and 609603 and 578025 | HEK 293T cytotoxicity assay raw signal (HEK293 cells; Co-AMA 1 μg/mL): 648007 and 588509 and 584554 | HEK 293T cytotoxicity assay raw signal (HEK293 cells; Co-AMA 2 μg/mL): 653814 and 579149 and 584837 | HEK 293T cytotoxicity assay raw signal (HEK293 cells; Co-AMA 4 μg/mL): 624260 and 594763 and 611086 | HEK 293T cytotoxicity assay raw signal (HEK293 cells; Co-AMA 8 μg/mL): 684397 and 665902 and 598886 | HEK 293T cytotoxicity assay raw signal (HEK293 cells; Co-AMA 16 μg/mL): 641409 and 612229 and 581248 | HEK 293T cytotoxicity assay raw signal (HEK293 cells; Co-AMA 32 μg/mL): 567905 and 544667 and 548517 | HEK 293T cytotoxicity assay raw signal (HEK293 cells; Co-AMA 64 μg/mL): 578062 and 599992 and 521662 | HEK 293T cytotoxicity assay raw signal (HEK293 cells; Co-AMA 128 μg/mL): 421336 and 474275 and 462640 | HEK 293T cytotoxicity assay raw signal (HEK293 cells; Co-AMA 256 μg/mL): 411884 and 395016 and 434679 | HEK 293T cytotoxicity assay raw signal (HEK293 cells; Co-AMA 512 μg/mL): 266726 and 265058 and 263860 | reduction in HEK293 cell viability (HEK293 cells; highest test concentration 512 μg/mL, 48 h): 50% | bacterial viability (spot dilutions) (K. pneumoniae [4]): do not affect bacterial viability

N[C@@H](Cc1c[nH]cn1)C(=O)O [L-His, L-histidine, reference compound]
pH of culture (Zn-AMA v.s. L-His) ([5]; L-His 3.12 μM): 8.06 and 8.1 | pH of culture (Zn-AMA v.s. L-His) ([5]; L-His 6.25 μM): 8.07 and 8.1 | pH of culture (Zn-AMA v.s. L-His) ([5]; L-His 12.5 μM): 7.85 and 7.9 | growth with urea as sole nitrogen source (K. pneumoniae [6]): not viable | Kd ([7]; read-out: KD1 for Ni^2+): 0.64 µM | Kd ([7]; read-out: KD2 for Ni^2+): 8.8 µM
